Assay results: ChEMBL document CHEMBL1201862, “PubChem BioAssay data set” (2004)
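Following 48 hours of exposure in 96-well plates, responses at five concentrations were used to interpolate endpoints linearly. Abbreviation: GI50, concentration required for 50% inhibition of growth.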 The source made the active and inactive calls. Cut-off read from the data, not from the text of the source: active = GI50 up to about 1.1 µM and inactive = higher.

Tests used:
Assay in all cases: DTP human tumour cell line panel, 48 h
[1] = test system: OVCAR-3
[2] = test system: M19-MEL
[3] = test system: DMS-273
[4] = test system: UO-31
[5] = test system: HL-60
[6] = test system: HCT-116
[7] = test system: MOLT-4
[8] = test system: DMS-114
[9] = test system: HOP-92
[10] = test system: DLD-1
[11] = test system: NCI-H522
[12] = test system: HCC 2998
[13] = test system: K562
[14] = test system: ACHN
[15] = test system: 786-0
[16] = test system: MDA-N
[17] = test system: BT-549
[18] = test system: T47D
[19] = test system: MDA-MB-231
[20] = test system: XF498

**Q.** `CCCCc1nccc2c(C)c3[nH]c4ccccc4c3cc12` was tested. Which GI50 [1] did it give?
**A.** 2.79 µM (inactive)

**Q.** And the GI50 [2]?
**A.** 3.1 µM (inactive)

**Q.** And the GI50 [3]?
**A.** 0.883 µM (active)

**Q.** What about the GI50 [4] of the same compound?
**A.** 1.86 µM (inactive)

**Q.** And the GI50 [5]?
**A.** 1.83 µM (inactive)

**Q.** What about the GI50 [6] of the same compound?
**A.** 1.77 µM (inactive)

**Q.** What about the GI50 [7] of the same compound?
**A.** 1.98 µM (inactive)

**Q.** And the GI50 [8]?
**A.** 1.59 µM (inactive)

**Q.** And the GI50 [9]?
**A.** 3.74 µM (inactive)

**Q.** What about the GI50 [10] of the same compound?
**A.** 2.81 µM (inactive)

**Q.** And the GI50 [11]?
**A.** 1.91 µM (inactive)

**Q.** What about the GI50 [12] of the same compound?
**A.** 3.44 µM (inactive)

**Q.** What about the GI50 [13] of the same compound?
**A.** 1.95 µM (inactive)

**Q.** With `O=C(CC1(O)C(=O)Nc2ccc(Br)cc21)c1cccc([N+](=O)[O-])c1` (stereo unspecified) as the compound, how does the GI50 [1] read?
**A.** 38.7 µM (inactive)

**Q.** And the GI50 [3]?
**A.** 45.8 µM (inactive)

**Q.** And the GI50 [4]?
**A.** 64.9 µM (inactive)

**Q.** And the GI50 [5]?
**A.** 27.7 µM (inactive)

**Q.** What about the GI50 [7] of the same compound?
**A.** 24.9 µM (inactive)

**Q.** What about the GI50 [14] of the same compound?
**A.** 60.5 µM (inactive)

**Q.** What about the GI50 [9] of the same compound?
**A.** 20.8 µM (inactive)

**Q.** What about the GI50 [10] of the same compound?
**A.** 34.5 µM (inactive)

**Q.** And the GI50 [11]?
**A.** 22.2 µM (inactive)

**Q.** And the GI50 [15]?
**A.** 42.7 µM (inactive)

**Q.** What about the GI50 [12] of the same compound?
**A.** 65 µM (inactive)

**Q.** What about the GI50 [13] of the same compound?
**A.** 20.6 µM (inactive)

**Q.** Which results are given for `N#CC(C#N)SCc1ccccc1`?
**A.** GI50 [1]: 23.8 µM (inactive); GI50 [2]: 54.1 µM (inactive); GI50 [16]: 1.63 µM (inactive); GI50 [17]: 1.85 µM (inactive); GI50 [3]: 39.2 µM (inactive); GI50 [4]: 20.1 µM (inactive); GI50 [5]: 4.44 µM (inactive); GI50 [18]: 18.5 µM (inactive); GI50 [6]: 6.55 µM (inactive); GI50 [7]: 1.67 µM (inactive); GI50 [8]: 24.4 µM (inactive); GI50 [19]: 2.66 µM (inactive); GI50 [14]: 40.4 µM (inactive); GI50 [9]: 15.5 µM (inactive); GI50 [10]: 36.6 µM (inactive); GI50 [11]: 5.86 µM (inactive); GI50 [15]: 15.7 µM (inactive); GI50 [12]: 61.2 µM (inactive); GI50 [13]: 1.12 µM (inactive)

**Q.** What does the source list for `COc1ccc(-c2cc(O)c3cc(Cl)ccc3n2)cc1`?
**A.** GI50 [1]: > 100 µM (inactive); GI50 [2]: > 100 µM (inactive); GI50 [4]: > 100 µM (inactive); GI50 [5]: > 100 µM (inactive); GI50 [6]: > 100 µM (inactive); GI50 [7]: > 100 µM (inactive); GI50 [8]: > 100 µM (inactive); GI50 [14]: > 100 µM (inactive); GI50 [9]: > 100 µM (inactive); GI50 [10]: > 100 µM (inactive); GI50 [11]: > 100 µM (inactive); GI50 [20]: > 100 µM (inactive); GI50 [15]: > 100 µM (inactive); GI50 [12]: > 100 µM (inactive); GI50 [13]: > 100 µM (inactive)

**Q.** With `[O-]/N=[N+](/[O-])C1CCCCC1=[N+]1CCOCC1` (stereo unspecified) as the compound, how does the GI50 [1] read?
**A.** > 100 µM (inactive)

**Q.** What about the GI50 [2] of the same compound?
**A.** > 100 µM (inactive)

**Q.** And the GI50 [4]?
**A.** > 100 µM (inactive)

**Q.** What about the GI50 [5] of the same compound?
**A.** > 100 µM (inactive)

**Q.** What about the GI50 [6] of the same compound?
**A.** > 100 µM (inactive)

**Q.** And the GI50 [7]?
**A.** > 100 µM (inactive)

**Q.** And the GI50 [8]?
**A.** > 100 µM (inactive)

**Q.** And the GI50 [14]?
**A.** > 100 µM (inactive)

**Q.** And the GI50 [9]?
**A.** > 100 µM (inactive)

**Q.** What about the GI50 [11] of the same compound?
**A.** > 100 µM (inactive)

**Q.** And the GI50 [20]?
**A.** 0.157 µM (active)

**Q.** What about the GI50 [15] of the same compound?
**A.** > 100 µM (inactive)

**Q.** What about the GI50 [13] of the same compound?
**A.** > 100 µM (inactive)

**Q.** Which results are given for `CC(=O)c1sc(Nc2nnc(-c3ccc(-c4nnc(Nc5nc(C)c(C(C)=O)s5)o4)cc3)o2)nc1C`?
**A.** GI50 [1]: > 100 µM (inactive); GI50 [3]: > 100 µM (inactive); GI50 [4]: > 10 µM (inactive); GI50 [5]: > 100 µM (inactive); GI50 [6]: > 100 µM (inactive); GI50 [7]: > 100 µM (inactive); GI50 [8]: > 100 µM (inactive); GI50 [14]: > 100 µM (inactive); GI50 [9]: > 100 µM (inactive); GI50 [10]: > 100 µM (inactive); GI50 [11]: > 10 µM (inactive); GI50 [15]: > 100 µM (inactive); GI50 [12]: > 100 µM (inactive); GI50 [13]: > 100 µM (inactive)

**Q.** How did the GI50 [1] turn out when `CCCCCOc1ccc(NC2=C(Cl)C(=O)c3c(O)ccc(O)c3C2=O)cc1` was run?
**A.** 4.2 µM (inactive)

**Q.** What about the GI50 [16] of the same compound?
**A.** 3.03 µM (inactive)

**Q.** And the GI50 [17]?
**A.** 4.42 µM (inactive)

**Q.** What about the GI50 [4] of the same compound?
**A.** 5.26 µM (inactive)

**Q.** What about the GI50 [5] of the same compound?
**A.** 1.37 µM (inactive)

**Q.** What about the GI50 [18] of the same compound?
**A.** 2.76 µM (inactive)

**Q.** And the GI50 [6]?
**A.** 2.88 µM (inactive)

**Q.** And the GI50 [7]?
**A.** 3.7 µM (inactive)

**Q.** And the GI50 [19]?
**A.** 3.35 µM (inactive)

**Q.** What about the GI50 [14] of the same compound?
**A.** > 10 µM (inactive)

**Q.** What about the GI50 [9] of the same compound?
**A.** 6.85 µM (inactive)

**Q.** And the GI50 [11]?
**A.** 2.55 µM (inactive)

**Q.** What about the GI50 [15] of the same compound?
**A.** 1.6 µM (inactive)

**Q.** And the GI50 [12]?
**A.** 2.65 µM (inactive)

**Q.** And the GI50 [13]?
**A.** 3.27 µM (inactive)
